# Data reported in PubChem BioAssay (NCI).
# Several values for one entry are separate records, joined by “and”; a condition that tells them apart may be missing. Identical values can stand only once.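 48-hour exposure; five concentrations; linearly interpolated endpoints. GI50 marks 50% less growth. Definition used: TGI = concentration required for complete inhibition of growth.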
# Assays:
# Assay in all cases: inhibition of tumour cell growth, NCI panel, 48 h
# A549 NSCLC = test system: A549 NSCLC
# HT29 colon = test system: HT29 colon
# TK-10 renal = test system: TK-10 renal
# SK-OV-3 ovarian = test system: SK-OV-3 ovarian
# NCI-H226 lung = test system: NCI-H226 lung
# ACHN renal = test system: ACHN renal
# 786-0 renal = test system: 786-0 renal
# IGROV1 ovarian = test system: IGROV1 ovarian
# RPMI-8226 leukemia = test system: RPMI-8226 leukemia
# DU-145 prostate = test system: DU-145 prostate
SMILES,TGI (A549 NSCLC),TGI (HT29 colon) [µM],TGI (TK-10 renal),TGI (SK-OV-3 ovarian) [µM],TGI (NCI-H226 lung) [µM],TGI (ACHN renal),TGI (786-0 renal),TGI (IGROV1 ovarian) [µM],TGI (RPMI-8226 leukemia),GI50 (A549 NSCLC),GI50 (HT29 colon) [µM],GI50 (TK-10 renal) [µM],GI50 (SK-OV-3 ovarian) [µM],GI50 (NCI-H226 lung) [µM],GI50 (ACHN renal) [µM],GI50 (786-0 renal) [µM],GI50 (IGROV1 ovarian) [µM],GI50 (RPMI-8226 leukemia),GI50 (DU-145 prostate) [µM],TGI (DU-145 prostate) [µM]
COc1ccc(-c2cc(=O)c3ccccc3o2)cc1N,> 100 µM,> 100,> 100 µM,> 100,> 100,> 100 µM,> 100 µM,> 100,> 100 µM,,,,,,,,,,,
CC(C)[O-].CC(C)[O-].O=C1C=C([O-])C(=O)c2ccccc21.O=C1C=C([O-])C(=O)c2ccccc21.[Ti+4],> 100 µM,> 100,> 100 µM,> 100,> 100,> 100 µM,> 100 µM,> 100,> 100 µM,47.2 µM,34.9,> 100,> 100,63.9,> 85.5,> 86.4,> 100,19.1 µM,,
O=C(CCc1nnc2s/c(=C\c3ccc(Cl)c(Cl)c3)c(=O)n12)Nc1ccc(Cl)c(Cl)c1,> 100 µM,> 100,> 100 µM,> 100,> 100,> 100 µM,> 100 µM,> 100,62.2 µM,,,,,,,,,,,
COC(=O)CC[C@]1(C)O[C@H]2[C@H]([C@@H](C)CCCC(C)=O)OC(=O)[C@@H]2C[C@H]1O,> 100 µM,> 100,> 100 µM,> 100,,> 100 µM,> 100 µM,> 100,> 100 µM,> 100 µM,> 100,68.7,> 100,,> 100,> 100,39.4,> 100 µM,,
O=C(Nc1ccc(Cl)cc1Cl)C1C(=O)C(=O)N(c2ccc(Cl)cc2Cl)C1=O (stereo not given),> 100 µM,> 100,> 100 µM,> 100,84.1,> 100 µM,> 100 µM,> 100,,,,,,,,,,,,
O=C(O)c1ccc(Oc2nccc(-c3c(-c4ccc(F)cc4)ncn3C3CCNCC3)n2)cc1,> 25 µM,> 25,> 25 µM,> 25,,> 25 µM,> 25 µM,> 25,> 25 µM,> 25 µM,> 25,> 25,> 25,,> 25,> 25,> 25,> 25 µM,> 25,> 25
COc1ccc2c3c([nH]c2c1[N+](=O)[O-])C(C)N(Cc1ccc([N+](=O)[O-])cc1)CC3 (stereo not given),> 100 µM,35.3,> 100 µM,,42.4,> 100 µM,> 100 µM,> 100,26.2 µM,,,,,,,,,,,
COc1cc(OC)c(SSCCCCS(=O)O)c(OC)c1,40.3 µM,32.9,42.9 µM,38.6,,31.8 µM,35.4 µM,57.8,,,,,,,,,,,,
CCOc1ccc(N=Cc2ccc3cc(C)ccc3n2)cc1,> 100 µM,> 100,> 100 µM,> 100,> 100,> 100 µM,> 100 µM,> 100,57.3 µM,,,,,,,,,,,
Cc1cccc(C)c1NC(=O)C(=O)CC(=O)/C=C/c1ccccc1,> 100 µM,> 100,> 100 µM,> 100,> 100,> 100 µM,> 100 µM,> 100,> 100 µM,,,,,,,,,,,
C/C=C1\C=C(OC)CN(CCc2c[nH]c3ccccc23)C1,> 100 µM,> 100,> 100 µM,,> 100,> 100 µM,> 100 µM,> 100,> 100 µM,,,,,,,,,,,
CCN(CC)CCCNC(=O)C1COc2cc(-c3cc(=O)c4ccccc4o3)ccc2O1 (stereo not given),> 100 µM,> 100,> 100 µM,> 100,> 100,> 100 µM,> 100 µM,> 100,> 100 µM,,,,,,,,,,,
Cc1cc(=O)oc2c(C)c(O)ccc12,> 100 µM,> 100,,,> 100,> 100 µM,> 100 µM,> 100,> 100 µM,,,,,,,,,,,> 100
Cc1ccccc1NC(=O)c1c(C)oc2c1C(=O)c1ccccc1C2=O,> 96.1 µM,> 100,> 100 µM,> 100,> 100,> 100 µM,> 100 µM,> 100,60.9 µM,,,,,,,,,,,
Cn1nc(-c2ccccc2)c(C(=O)/C=C/c2ccc(Cl)cc2)c(N2CCCCC2)c1=O,8.65 µM,6.9,14.3 µM,9.81,,4.31 µM,3.67 µM,4.95,5.52 µM,,,,,,,,,,,
CCOC(=O)N1c2c(ccn2C)-c2ccn(C)c2N1C(=O)OCC,39.4 µM,30.1,,77.3,37.5,29.6 µM,23.1 µM,52.4,54.3 µM,,,,,,,,,,,
O=C1O[C@H](c2ccccc2)[C@@H]2CC3(CCN12)OCCO3,> 100 µM,> 100,> 100 µM,,> 100,> 100 µM,> 100 µM,> 100,> 100 µM,,,,,,,,,,,
CC(=O)OC[C@]1(C)CCCC2(C)C1CCC1C=C(C)[C@H]3CCC12C3 (stereo not given in full),> 100 µM,> 100,> 100 µM,> 100,> 100,> 100 µM,> 100 µM,> 100,> 100 µM,,,,,,,,,,,
CC(C)(C)CC(C)(C)c1cc2c(O)c(c1)Cc1cc(C(C)(C)CC(C)(C)C)cc(c1O)Cc1cc(C(C)(C)CC(C)(C)C)cc(c1O)Cc1cc(C(C)(C)CC(C)(C)C)cc(c1O)Cc1cc(C(C)(C)CC(C)(C)C)cc(c1O)C2,> 100 µM,> 100,> 100 µM,,,> 100 µM,> 100 µM,> 100,> 100 µM,,,,,,,,,,,
O=C(O)Cc1cc(=O)[nH]c2c1/C(=N/O)CCC2,> 100 µM,> 100,> 100 µM,> 100,> 100,> 100 µM,> 100 µM,> 100,> 100 µM,,,,,,,,,,,

SMILES,TGI (A549 NSCLC),TGI (HT29 colon) [µM],TGI (TK-10 renal),TGI (SK-OV-3 ovarian) [µM],TGI (NCI-H226 lung) [µM],TGI (ACHN renal),TGI (786-0 renal),TGI (IGROV1 ovarian) [µM],TGI (RPMI-8226 leukemia),GI50 (A549 NSCLC),GI50 (HT29 colon) [µM],GI50 (TK-10 renal) [µM],GI50 (SK-OV-3 ovarian) [µM],GI50 (NCI-H226 lung) [µM],GI50 (ACHN renal) [µM],GI50 (786-0 renal) [µM],GI50 (IGROV1 ovarian) [µM],GI50 (RPMI-8226 leukemia),GI50 (DU-145 prostate) [µM],TGI (DU-145 prostate) [µM]
CC(=O)[CH-]C(=O)c1ccccc1.CC(=O)[CH-]C(=O)c1ccccc1.CC(C)CCCC(C)[C@H]1CCC2[C@@H]3CC=C4C[C@@H]([O-])CC[C@]4(C)C3CC[C@@]21C.CC(C)CCCC(C)[C@H]1CCC2[C@@H]3CC=C4C[C@@H]([O-])CC[C@]4(C)C3CC[C@@]21C.[Ti+4] (stereo not given in full),,> 100,> 100 µM,> 100,> 100,> 100 µM,> 100 µM,> 100,> 100 µM,,> 100,> 100,> 100,> 100,> 100,> 100,> 100,> 100 µM,,
CC1=C[C@]2(O)C(=O)[C@H](C)C[C@H]3[C@@H](CC[C@@](C)(O)/C=C\2C1=O)C3(C)C,> 100 µM,> 71.6,> 78.7 µM,98,> 79.5,54.6 µM,39.5 µM,53.1,> 73.3 µM,,,,,,,,,,,
O=C1Cc2c([nH]c3ccccc23)-c2ccccc2N1,> 100 µM,69,> 100 µM,> 100,> 100,> 100 µM,> 100 µM,70.8,> 100 µM,,,,,,,,,,,
CC1=C(C(=O)Nc2cc(=O)n(C)c(=O)n2C)C(c2cccc([N+](=O)[O-])c2)C(C(=O)Nc2cc(=O)n(C)c(=O)n2C)=C(C)N1,> 100 µM,> 100,> 100 µM,> 100,> 100,> 100 µM,> 100 µM,> 100,> 100 µM,,,,,,,,,,,
C#CCOCn1cnc2c(Sc3c([N+](=O)[O-])ncn3C)ncnc21,> 100 µM,> 100,> 100 µM,> 100,> 100,> 100 µM,> 100 µM,> 100,> 100 µM,,,,,,,,,,,
CCOC(=O)Cc1ccc2c(c1O)C(=O)c1c(ccc(CC(=O)OCC)c1O)C2=O,> 100 µM,> 100,> 100 µM,> 100,> 100,> 100 µM,> 100 µM,,> 100 µM,,,,,,,,,,,
c1cc(N2CCCN(c3ccc(C4=NCCCN4)cc3)CC2)ccc1C1=NCCCN1,> 100 µM,> 100,> 100 µM,,> 100,> 100 µM,> 100 µM,> 100,> 100 µM,59.6 µM,> 100,52.5,,> 100,> 100,> 100,> 100,> 100 µM,> 100,> 100
COc1cc(Nc2nc3ccccc3nc2NS(=O)(=O)c2ccc(NC(=O)c3ccc(C)c(OC)c3)cc2)cc(OC)c1,> 100 µM and 80.4 µM and > 9.12 µM,> 100,37.6 µM and 54.1 µM and > 6.03 µM,,,48.7 µM and 62.8 µM and > 10 µM,74.1 µM and > 7.32 µM,,84.5 µM and 53.8 µM and > 10 µM,4.38 µM and 13.3 µM and 1.79 µM,,,,,,,,3.98 µM and 12.3 µM and 1.96 µM,,> 100
COC(=O)c1cc2c3ccccc3n3c(=O)c4cc5ccccc5nc4c(n1)c23,> 100 µM,> 100,> 100 µM,> 100,> 100,> 100 µM,> 100 µM,> 100,,> 100 µM,> 100,> 100,> 100,> 100,> 100,> 100,> 100,,> 100,> 100
O=C1[C@H]2ON(c3ccccc3)C(c3ccccc3)[C@H]2C(=O)N1c1ccc(Cc2ccc(N3C(=O)[C@@H]4ON(c5ccccc5)C(c5ccccc5)[C@@H]4C3=O)cc2)cc1 (stereo not given in full),> 100 µM,> 100,,> 100,> 100,> 100 µM,> 100 µM,> 100,> 100 µM,,,,,,,,,,,
CCOC(=O)NC1C2CC(=O)OC(O2)C1OC(C)=O (stereo not given),> 100 µM,> 100,> 100 µM,> 100,,> 100 µM,> 100 µM,> 100,> 100 µM,,,,,,,,,,> 100,> 100
O=C(c1ccccc1)c1c(-c2ccccc2)sc2nc3ccccc3nc12,> 100 µM,> 100,> 100 µM,> 100,> 100,> 100 µM,> 100 µM,> 100,> 100 µM,,,,,,,,,,,
O=C1NC(=O)C(c2ccccc2Cl)=C1Nc1cc(Cl)c(O)c(Cl)c1,> 25 µM,> 25,> 25 µM,> 25,,> 25 µM,> 25 µM,> 25,> 25 µM,> 25 µM,14.2,> 25,16.3,,> 23.7,23.7,> 25,> 19.4 µM,> 25,> 25
CC(=O)OC1CCn2nnc(CO)c21 (stereo not given),> 100 µM,> 100,> 100 µM,> 100,> 100,,> 100 µM,> 100,> 100 µM,,,,,,,,,,,
C[C@]12CCC(=O)C(O)=C1CC[C@@H]1C2CC[C@]2(C)NC(=O)CCC12 (stereo not given in full),> 100 µM,> 100,> 100 µM,> 100,> 100,> 100 µM,> 100 µM,> 100,> 100 µM,,,,,,,,,,,
CC(=O)c1cccc(C)c1C(=O)O,> 100 µM,> 100,> 100 µM,> 100,> 100,> 100 µM,> 100 µM,> 100,> 100 µM,,,,,,,,,,,
O=C1C=CC(=O)C12CCc1ccccc12,> 100 µM,> 100,> 100 µM,> 100,> 100,> 100 µM,> 100 µM,> 100,45.8 µM,,,,,,,,,,,
CC(=O)CC(N)=O,> 100 µM,> 100,> 100 µM,> 100,> 100,> 100 µM,> 100 µM,> 100,> 100 µM,,,,,,,,,,,
Cc1cccc(C)c1CO,> 100 µM,> 100,,> 100,> 100,> 100 µM,> 100 µM,> 100,> 100 µM,,,,,,,,,,,
COc1ccc(NC(=O)CC/C(CC(=O)C(C)(C)C)=N\NC(=O)C(=O)NN)cc1,> 100 µM,> 100,> 100 µM,> 100,> 100,> 100 µM,> 100 µM,> 100,> 100 µM,,,,,,,,,,,
